Measured values from PubChem BioAssay AID743417 (Broad Institute, 2014).
Records with an inconclusive call do not appear. The source made the active and inactive calls.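 The calls were made as follows: active = compounds lowering the luciferase signal with a fitted half-maximal dose at most twice their top valid dose (cut at about 30 µM in these data); inconclusive = flat fits with moderate signal loss, or poor fits; inactive = the rest.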

System: Clone20 osteoblast Shn3 3'UTR firefly luciferase, 24 h
Experiment: Shn3 3'UTR reporter inhibitors, dose response, cell-based, Clone20 osteoblasts, luminescence, dry powder, set 2 (AID 743417)

| SMILES | AC50 |
| --- | --- |
| Cc1ccc2cc(CN(CC3CCCO3)C(=O)NC3CCCCC3)c(=O)[nH]c2c1C (stereo not given) | 4.49 µM |
| S=C(NNc1ccnc2cc(Cl)ccc12)Nc1ccc(Cl)cc1Cl | 4.9 µM |
| CC[C@H](C)[C@H]1O[C@]2(CC[C@@H]1C)C[C@@H]1C[C@@H](CC=C(C)[C@@H](O[C@H]3C[C@H](OC)[C@@H](O[C@H]4C[C@H](OC)[C@@H](O)[C@H](C)O4)[C@H](C)O3)[C@@H](C)C=CC=C3CO[C@@H]4[C@H](O)C(C)=C[C@@H](C(=O)O1)[C@]34O)O2 | 6.32 µM |
| COc1ccc(-c2csc(NC(=O)C3CCN(c4ncnc5sc(C)c(C)c45)CC3)n2)cc1OC | 1.42 µM |
| CCCCN(c1nc2ccccc2nc1Cl)S(=O)(=O)c1ccc(C)cc1 | 7.22 µM |
| CCN(CC)CCN1C(=O)/C(=C\c2ccc(Cl)c([N+](=O)[O-])c2)SC1=Nc1ccc(OC)cc1 | 2.11 µM |
| Cc1cc(Nc2cccc(Cl)c2)nc(NCc2ccccc2)n1 | 1.64 µM |
| Cn1c(=O)c2[nH]c(CCCCCCCCc3nc4ccccc4[nH]3)nc2n(C)c1=O | 3.98 µM |
| Cc1cccc(NC(=O)c2nc(S(=O)(=O)Cc3ccccc3)ncc2Cl)c1 | 2.66 µM |
| Nc1nc(Cl)cc(N2CCC(c3cc(-c4ccc(Cl)cc4Cl)n[nH]3)CC2)n1 | 4.94 µM |
| Fc1ccc(NC(=S)N2CCCN(c3ccc(C(F)(F)F)cn3)CC2)c(F)c1 | 3.71 µM |
| Cc1cccc(N2C(=O)NC(=O)/C(=C\C=C\c3ccco3)C2=O)c1 | 3.06 µM |
| O=C(N[C@@H]1C/C=C\C[C@H](CC(=O)N(CCO)Cc2ccccc2)C(=O)NC[C@@H](c2ccccc2)OC1=O)OCC1c2ccccc2-c2ccccc21 | 4.5 µM |
| O=[N+]([O-])/C=C/c1cn(Cc2ccc(Cl)cc2)c2ccccc12 | 8.32 µM |
| CC(C)(C)c1cc(C(=O)N/N=C/c2ccccc2O)n(-c2ccccc2)n1 | 2.25 µM |
| CC(=O)OCC(=O)[C@@]1(O)CC[C@H]2[C@@H]3CCC4=CC(=O)CC[C@]4(C)[C@H]3C(=O)C[C@@]21C | 28.3 µM |
| NC(=Nc1nc(-c2ccccn2)cc2ccccc12)c1ccccn1 | < 0.26 µM |
| Cc1cccc(CS(=O)(=O)c2ncc(Cl)c(C(=O)NCc3ccc4c(c3)OCO4)n2)c1 | 0.938 µM |
| CCn1cc(C(=O)NCc2ccco2)c(=O)c2cc(S(=O)(=O)N3CC(C)CC(C)C3)ccc21 (stereo not given) | 0.778 µM |
| CCOC(=O)N1CCN(CC(c2ccccc2)c2ccccc2)CC1 | 14.1 µM |
| O=C(Nc1ccc(S(=O)(=O)N2CCN(Cc3ccccc3)CC2)cc1)c1cnccn1 | 1.65 µM |
| CC1=C(C(=O)NC2CCCc3c2cnn3-c2cccc(C)c2C)OCCO1 (stereo not given) | 3.49 µM |
| N#CC(c1cccc(Cl)c1)c1ccc2c(C(F)(F)F)cc(C(F)(F)F)nc2n1 (stereo not given) | 0.689 µM |
| Cc1ccc(C(=O)NC2CCCc3c2cnn3-c2ccc(F)cc2F)cn1 (stereo not given) | 0.921 µM |
| CCc1ccc(-n2c(O)c(C=NCCN(CC)CC)c(=O)[nH]c2=O)cc1 | > 70 µM (inactive) |

| SMILES | AC50 |
| --- | --- |
| CCC1CCCCN1S(=O)(=O)c1ccc(NC(=O)c2nc(S(C)(=O)=O)ncc2Cl)cc1 (stereo not given) | 0.341 µM |
| Cn1nnnc1Sc1ncnc2scc(Br)c12 | 6.51 µM |
| Cc1ccc(CS(=O)(=O)c2ncc(Cl)c(C(=O)Nc3nnc(C)s3)n2)cc1 | 0.639 µM |
| Oc1c(CN2CCN(c3ccc(F)cc3)CC2)cc(Cl)c2cccnc12 | 1.32 µM |
| CC(=O)Oc1ccc(OC(C)=O)c(SCCCCCCl)c1 | 2.58 µM |
| Cn1nc(-c2ccccn2)nc2c(=O)n(C)c(=O)nc1-2 | 0.493 µM |
| COc1ccc(C(=O)C(CN2CCOCC2)c2ccccc2)cc1 (stereo not given) | 5.59 µM |
| Cc1cc(C)c(C)c(S(=O)(=O)N2CCN(c3ncnc4ccccc34)CC2)c1C | 1.46 µM |
| COc1ccc(NS(=O)(=O)c2cccc(NC(=O)c3ccc(S(=O)(=O)N4CCCCCC4)cc3)c2)cc1 | 0.829 µM |
| COC(=O)C12OCC34C(CC5C(C)=C(O)C(=O)CC5(C)C3C(O)C1O)OC(=O)C(OC(=O)C=C(C)C)C24 (stereo not given) | < 0.26 µM |
| COc1ccccc1Cc1c(-c2ccco2)nc2c(C)cc(Br)cn12 | 1.9 µM |
| Cc1ccccc1OCC(O)CNC1CCC(NCC(O)COc2ccccc2C)CC1 (stereo not given) | 4.5 µM |
| OC1(c2ccc(OC(F)F)cc2)CSC(=Nc2cccnc2)N1C1CC1 (stereo not given) | 5.4 µM |
| CCOC(=O)c1c(CSCc2ccccc2)oc2ccc(O)c(CN(C)C)c12 | 9.79 µM |
| COc1cccc(CN(C)C(=O)c2cccc(S(=O)(=O)N3CCN(Cc4ccccc4)CC3)c2)c1OC | 4.94 µM |
| Oc1ccc(-c2nc(-c3ccc(O)c(O)c3)cs2)cc1 | 5.07 µM |
| O=C(Cc1ccc(Cl)cc1Cl)Nc1ccncc1 | 2.56 µM |
| O=C(/C=C1\C(=O)Nc2ccccc21)/C=C1\C(=O)Nc2ccccc21 | 9.5 µM |
| C=C1C(=O)OC2CC(C)C3C=CC(=O)C3(C)C(O)C12 (stereo not given) | < 0.26 µM |
| Cc1cc(N2CCCC2=O)cc(C)c1S(=O)(=O)NCCOc1ccc(C(C)(C)C)cc1 | 1.15 µM |
| COc1ccc(CNC(=O)c2cc3c(C)nc4ccccc4c3o2)c(OC)c1 | 3.22 µM |
| O=C(NC1CCCCCCC1)c1cc(COc2ccc3ncccc3c2)on1 | 1.06 µM |
| CC(=O)NC(c1ccc(Cl)cc1Cl)c1ccc2cccnc2c1O (stereo not given) | 0.465 µM |
| C=C1C(=O)C23C(O)C1CCC2C12COC3(O)C(O)C1C(C)(C)CCC2O (stereo not given) | 3.3 µM |
| COc1cc2c(OC(C)=O)c3c(c(-c4ccc5c(c4)OCO5)c2cc1OC)C(=O)OC3 | 1.8 µM |
